Molecular target: T1, gastrin (CCK2) receptors (Rattus norvegicus, UniProt P30553)
T1 construct: The stomach was excised and flushed with ca. 1 ml of unbuffered physiological saline solution; from tissue; host or cells: isolated, lumen-perfused stomach of immature rats (33-50 g, ca. 21 days old)
T1 sequence (P30553 1-452): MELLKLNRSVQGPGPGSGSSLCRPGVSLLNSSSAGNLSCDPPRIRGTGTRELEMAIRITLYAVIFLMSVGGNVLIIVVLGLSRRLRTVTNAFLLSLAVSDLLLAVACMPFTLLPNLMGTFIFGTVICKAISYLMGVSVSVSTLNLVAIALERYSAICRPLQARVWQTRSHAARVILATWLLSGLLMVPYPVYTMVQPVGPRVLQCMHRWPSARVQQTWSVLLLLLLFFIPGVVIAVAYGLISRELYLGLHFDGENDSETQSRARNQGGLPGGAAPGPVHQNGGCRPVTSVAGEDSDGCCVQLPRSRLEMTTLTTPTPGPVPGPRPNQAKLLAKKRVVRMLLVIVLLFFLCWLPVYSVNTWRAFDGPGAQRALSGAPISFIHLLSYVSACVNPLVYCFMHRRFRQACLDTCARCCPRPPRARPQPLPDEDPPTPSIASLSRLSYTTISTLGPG
Assay: immature rat stomach assay, gastrin (CCK2) antagonist activity against pentagastrin-stimulated acid secretion
Type: cell-based
Details: isolated immature rat stomach, pentagastrin dose-response curves, 60 min after drug addition; for Kb: read-out: Rat Stomach pKB (converted)
Description: The compounds of the examples were tested for gastrin (CCK2) antagonist activity in an immature rat stomach assay. The procedure was as follows:
The oesophagus of immature rats (33-50 g, ca. 21 days old) was ligated at the level of the cardiac sphincter and the duodenal sphincter was cannulated. The stomach was excised and flushed with ca. 1 ml of unbuffered physiological saline solution. The fundus was punctured and cannulated. A further 4-5 ml of unbuffered solution was flushed through the stomach to ensure the preparation was not leaking. The stomach was lowered into a jacketed organ bath containing 40 ml of buffered solution containing 3×10^−8 M 5-methylfurmethide, maintained at 37° and gassed vigorously with 95% O2/5% CO2. The stomach was continuously perfused at a rate of 1 ml min^−1 with unbuffered solution gassed with 100% O2 with the perfusate passing over an internally referenced pH-electrode fixed 12 cm above the stomach.
After 120 min of stabilisation the drugs were added directly to the serosal solution in the organ bath and after a further 60 min cumulative pentagastrin dose-response curves were started. Changes in acid secretion were monitored and the curves analysed according to Black et al., Br. J. Pharmacol., 1985, 86, 581.

| Compound | Kb | Rat Stomach pKB |
| --- | --- | --- |
| O=C(O)c1cccc(NC(=O)c2c(COC34CC5CC(CC(C5)C3)C4)nn(C3CCCCC3)c2O)c1 [Example 4, 3-{[3-(Adamantan-1-yloxymethyl)-1-cyclohexyl-5-hydroxyl-1H-pyrazole-4-carbonyl]-amino}-benzoic acid] | 30.9 nM | – |
| COc1c(C(=O)Nc2cccc(C(=O)O)c2)c(COC23CC4CC(CC(C4)C2)C3)nn1C1CCCCC1 [Example 5, 3-{[3-(Adamantan-1-yloxymethyl)-1-cyclohexyl-5-methoxy-1H-pyrazole-4-carbonyl]-amino}-benzoic acid] | 170 nM | – |
| 3-{[3-(Adamantan-1-yloxymethyl)-3-phenyl-1-o-tolyl-1H-pyrazole-4-carbonyl]-amino}-benzoic acid [Example 2] | – | 5.66 ± 0.24 |
| Cc1ccccc1-n1nc(COC23CC4CC(CC(C4)C2)C3)c(C(=O)Nc2cccc(C(=O)O)c2)c1O [Example 3, 3-{[3-(Adamantan-1-yloxymethyl)-5-hydroxy-1-o-tolyl-1H-pyrazole-4-carbonyl]-amino}-benzoic acid] | 19.1 nM | – |
| Cn1c(COC23CC4CC(CC(C4)C2)C3)c(C(=O)Nc2cccc(C(=O)O)c2)c(=O)n1C1CCCCC1 [Example 6, 3-{[5-(Adamantan-1-yloxymethyl)-2-cyclohexyl-1-methyl-3-oxo-2,3-dihydro-1H-pyrazole-4-carbonyl]-amino}-benzoic acid] | 269 nM | – |
